Columns and labels:
[1] = biological target: T1, H1N1 (A/WSN/1933) hemagglutinin (HA) protein (Influenza A virus, UniProt P03454); assay: biochemical; type: binding, influenza virus H1N1 (A/WSN/1933)
T1 construct: purchased Sino Biological Inc. (Beijing, China)

[2] = biological target: H5N1 (A/Hong Kong/483/97) hemagglutinin (HA) protein (Influenza A virus, UniProt Q77XR4); type: binding, influenza virus H5N1 (A/Hong Kong/483/97); details: pH 7.4
[3] = test system: HA; details: in our previous work; cited from earlier work

Row | Compound | thermodynamic dissociation constant KD ([1]; pH 7.4) | thermodynamic dissociation constant KD [2] | Kd [1] | affinity to HA (SPR) [3]
1 | C=C(C)[C@@H]1CC[C@]2(C(=O)O)CC[C@]3(C)[C@H](CC[C@@H]4[C@@]5(C)CC[C@H](O)C(C)(C)[C@@H]5CC[C@]43C)[C@@H]12 [BA, betulinic acid] | no affinity | no significant affinity | – | –
2 | CC1(C)[C@@H](O)CC[C@]2(C)[C@H]3C(=O)C=C4[C@@H]5C[C@@](C)(C(=O)O)CC[C@]5(C)CC[C@@]4(C)[C@]3(C)CC[C@@H]12 [GA, glycyrrhetinic acid] | – | no significant affinity | 584 µM | –
3 | CC1(C)CC[C@]2(C(=O)O)CC[C@]3(C)C(=CC[C@@H]4[C@@]5(C)CC[C@H](O)C(C)(C)[C@@H]5CC[C@]43C)[C@@H]2C1 [OA, oleanolic acid] | – | – | 31.1 µM | –
4 | C=C(C)[C@@H]1CC[C@]2(C(=O)OCCOCCOCCOCCOCCOCCn3cc(CCC(=O)N[C@@H](CC(=O)N[C@@H]4O[C@H](CO)[C@@H](O[C@@H]5O[C@H](CO)[C@@H](O[C@@H]6O[C@H](CO[C@H]7O[C@H](CO)[C@@H](O)[C@H](O)[C@@H]7O[C@@H]7O[C@H](CO)[C@@H](O[C@@H]8O[C@H](CO[C@]9(C(=O)O)C[C@H](O)[C@@H](NC(C)=O)[C@H]([C@H](O)[C@H](O)CO)O9)[C@H](O)[C@H](O)[C@H]8O)[C@H](O)[C@H]7NC(C)=O)[C@@H](O)[C@H](O[C@H]7O[C@H](CO)[C@@H](O)[C@H](O)[C@@H]7O[C@@H]7O[C@H](CO)[C@@H](O[C@@H]8O[C@H](CO[C@]9(C(=O)O)C[C@H](O)[C@@H](NC(C)=O)[C@H]([C@H](O)[C@H](O)CO)O9)[C@H](O)[C@H](O)[C@H]8O)[C@H](O)[C@H]7NC(C)=O)[C@@H]6O)[C@H](O)[C@H]5NC(C)=O)[C@H](O)[C@H]4NC(C)=O)C(=O)O)nn3)CC[C@]3(C)[C@H](CC[C@@H]4[C@@]5(C)CC[C@H](O)C(C)(C)[C@@H]5CC[C@]43C)[C@@H]12 [SCT-Asn-BA] | – | – | 6.89 µM | –
5 | CC(=O)N[C@@H]1[C@@H](O)[C@H](O[C@@H]2O[C@H](CO)[C@@H](O[C@@H]3O[C@H](CO[C@H]4O[C@H](CO)[C@@H](O)[C@H](O)[C@@H]4O[C@@H]4O[C@H](CO)[C@@H](O[C@@H]5O[C@H](CO[C@]6(C(=O)O)C[C@H](O)[C@@H](NC(C)=O)[C@H]([C@H](O)[C@H](O)CO)O6)[C@H](O)[C@H](O)[C@H]5O)[C@H](O)[C@H]4NC(C)=O)[C@@H](O)[C@H](O[C@H]4O[C@H](CO)[C@@H](O)[C@H](O)[C@@H]4O[C@@H]4O[C@H](CO)[C@@H](O[C@@H]5O[C@H](CO[C@]6(C(=O)O)C[C@H](O)[C@@H](NC(C)=O)[C@H]([C@H](O)[C@H](O)CO)O6)[C@H](O)[C@H](O)[C@H]5O)[C@H](O)[C@H]4NC(C)=O)[C@@H]3O)[C@H](O)[C@H]2NC(C)=O)[C@@H](CO)O[C@H]1NC(=O)C[C@H](NC(=O)CCc1cn(CCOCCOCCOCCOCCOCCOC(=O)[C@@]2(C)CC[C@]3(C)CC[C@]4(C)C(=CC(=O)[C@@H]5[C@@]6(C)CC[C@H](O)C(C)(C)[C@@H]6CC[C@]54C)[C@@H]3C2)nn1)C(=O)O [SCT-Asn-GA] | – | – | 16.4 µM | –
6 | CC(=O)N[C@@H]1[C@@H](O)[C@H](O[C@@H]2O[C@H](CO)[C@@H](O[C@@H]3O[C@H](CO[C@H]4O[C@H](CO)[C@@H](O)[C@H](O)[C@@H]4O[C@@H]4O[C@H](CO)[C@@H](O[C@@H]5O[C@H](CO[C@]6(C(=O)O)C[C@H](O)[C@@H](NC(C)=O)[C@H]([C@H](O)[C@H](O)CO)O6)[C@H](O)[C@H](O)[C@H]5O)[C@H](O)[C@H]4NC(C)=O)[C@@H](O)[C@H](O[C@H]4O[C@H](CO)[C@@H](O)[C@H](O)[C@@H]4O[C@@H]4O[C@H](CO)[C@@H](O[C@@H]5O[C@H](CO[C@]6(C(=O)O)C[C@H](O)[C@@H](NC(C)=O)[C@H]([C@H](O)[C@H](O)CO)O6)[C@H](O)[C@H](O)[C@H]5O)[C@H](O)[C@H]4NC(C)=O)[C@@H]3O)[C@H](O)[C@H]2NC(C)=O)[C@@H](CO)O[C@H]1NC(=O)C[C@H](NC(=O)CCc1cn(CCOCCOCCOCCOCCOCCOC(=O)[C@]23CCC(C)(C)C[C@H]2C2=CC[C@@H]4[C@@]5(C)CC[C@H](O)C(C)(C)[C@@H]5CC[C@@]4(C)[C@]2(C)CC3)nn1)C(=O)O [SCT-Asn-OA] | – | – | 11.2 µM | –
7 | CC(=O)N[C@@H]1[C@@H](O)[C@H](O[C@@H]2O[C@H](CO)[C@@H](O[C@@H]3O[C@H](CO[C@H]4O[C@H](CO)[C@@H](O)[C@H](O)[C@@H]4O[C@@H]4O[C@H](CO)[C@@H](O[C@@H]5O[C@H](CO[C@]6(C(=O)O)C[C@H](O)[C@@H](NC(C)=O)[C@H]([C@H](O)[C@H](O)CO)O6)[C@H](O)[C@H](O)[C@H]5O)[C@H](O)[C@H]4NC(C)=O)[C@@H](O)[C@H](O[C@H]4O[C@H](CO)[C@@H](O)[C@H](O)[C@@H]4O[C@@H]4O[C@H](CO)[C@@H](O[C@@H]5O[C@H](CO[C@]6(C(=O)O)C[C@H](O)[C@@H](NC(C)=O)[C@H]([C@H](O)[C@H](O)CO)O6)[C@H](O)[C@H](O)[C@H]5O)[C@H](O)[C@H]4NC(C)=O)[C@@H]3O)[C@H](O)[C@H]2NC(C)=O)[C@@H](CO)O[C@H]1NC(=O)C[C@H](NC(=O)CCc1cn(CCOCCOCCOCCOCCOCCOC(=O)[C@]23CC[C@@H](C)[C@H](C)[C@H]2C2=CC[C@@H]4[C@@]5(C)CC[C@H](O)C(C)(C)[C@@H]5CC[C@@]4(C)[C@]2(C)CC3)nn1)C(=O)O [SCT-Asn-UA] | – | – | 289 µM | –
8 | C[C@H]1[C@H](C)CC[C@]2(C(=O)O)CC[C@]3(C)C(=CC[C@@H]4[C@@]5(C)CC[C@H](O)C(C)(C)[C@@H]5CC[C@]43C)[C@H]12 [UA, ursolic acid] | – | no significant affinity | 137 µM | –
9 | Sialylglycopeptide [SGP] | – | no affinity | – | no affinity
